Key:
Type in all cases: cell-based
[1] = test system: A431 cells; experiment: Cellular proliferation (Alamar Blue) assay, A431 cells; settings: Homo sapiens, A-431, 72 hr incubation
Protocol: (§1) Example 2: Cellular Proliferation (Alamar Blue) Assays
(§2) • 1. EGFR(D770_N771insSVD) expressing Ba/F3 stable cell line • 2. EGFR (A767_dupASV) expressing Ba/F3 stable cell line • 3. A431 cells • 4. EGFR (H773insNPH) expressing Ba/F3 stable cell line • 5. HER2 (A775_G775insYVMA) expressing Ba/F3 stable cell line
(§3) • 1. Seed cells at 5000 for A431 and 15,000 cells for Ba/F3 in 100 μL/well in complete media (for A431: DMEM with 10% FBS and for Ba/F3 cells: RPMI with 10% FBS) in • 96-well tissue culture plate. Leave outer wells without cells for background measurements. Incubate at 37 degree Celsius in 5% C02 humidified incubator for 16-18 hours. • 2. Add 0.025 ml of 5× concentration compound dilution or DMSO control. Final compound concentration range is 10-0.0005 μM prepared in 3-fold serial dilutions. Incubate for 72 hr at 37 degree Celsius in 5% CO2 humidified incubator. • 3. Add 0.0125 ml Alamar Blue™ reagent to each well with multi-channel pipette and tap gently on each side of the plate to mix. Incubate for 3 hours at 37 degree Celsius in 5% CO2 humidified incubator. • 4. Read plates on fluorescence reader (Tecan Spark Control, Device: Spark, Serial #: 1801006040) at 540 nm excitation, 590 nm emission wavelength. • 5. Data analysis was performed using XLfit 5.5.0.5.

[2] = molecular target: EGFR (A767_dupASV) expressing Ba/F3 stable cell line (Homo sapiens, UniProt P00533, DUP767-769, cells depend on it); experiment: Cellular proliferation (Alamar Blue) assay, EGFR (A767_dupASV) Ba/F3; settings: 72 hr incubation, read-out: A767 IC50
Protocol: as §1, §2, §3

[3] = molecular target: EGFR(D770_N771insSVD) expressing Ba/F3 stable cell line (Homo sapiens, UniProt P00533, DUP768-770, cells depend on it); experiment: Cellular proliferation (Alamar Blue) assay, EGFR(D770_N771insSVD) Ba/F3; settings: 72 hr incubation, read-out: D770 IC50
Protocol: as §1, §2, §3

[4] = molecular target: HER2 (A775_G775insYVMA) expressing Ba/F3 stable cell line (Homo sapiens, UniProt P04626, DUP772-775, cells depend on it); experiment: Cellular proliferation (Alamar Blue) assay, HER2 (A775_G775insYVMA) Ba/F3; settings: 72 hr incubation, read-out: YVMA IC50
Protocol: as §1, §2, §3

Chain of EGFR(D770_N771insSVD) expressing Ba/F3 stable cell line (P00533 with tags, fused parts or gaps DUP768-770): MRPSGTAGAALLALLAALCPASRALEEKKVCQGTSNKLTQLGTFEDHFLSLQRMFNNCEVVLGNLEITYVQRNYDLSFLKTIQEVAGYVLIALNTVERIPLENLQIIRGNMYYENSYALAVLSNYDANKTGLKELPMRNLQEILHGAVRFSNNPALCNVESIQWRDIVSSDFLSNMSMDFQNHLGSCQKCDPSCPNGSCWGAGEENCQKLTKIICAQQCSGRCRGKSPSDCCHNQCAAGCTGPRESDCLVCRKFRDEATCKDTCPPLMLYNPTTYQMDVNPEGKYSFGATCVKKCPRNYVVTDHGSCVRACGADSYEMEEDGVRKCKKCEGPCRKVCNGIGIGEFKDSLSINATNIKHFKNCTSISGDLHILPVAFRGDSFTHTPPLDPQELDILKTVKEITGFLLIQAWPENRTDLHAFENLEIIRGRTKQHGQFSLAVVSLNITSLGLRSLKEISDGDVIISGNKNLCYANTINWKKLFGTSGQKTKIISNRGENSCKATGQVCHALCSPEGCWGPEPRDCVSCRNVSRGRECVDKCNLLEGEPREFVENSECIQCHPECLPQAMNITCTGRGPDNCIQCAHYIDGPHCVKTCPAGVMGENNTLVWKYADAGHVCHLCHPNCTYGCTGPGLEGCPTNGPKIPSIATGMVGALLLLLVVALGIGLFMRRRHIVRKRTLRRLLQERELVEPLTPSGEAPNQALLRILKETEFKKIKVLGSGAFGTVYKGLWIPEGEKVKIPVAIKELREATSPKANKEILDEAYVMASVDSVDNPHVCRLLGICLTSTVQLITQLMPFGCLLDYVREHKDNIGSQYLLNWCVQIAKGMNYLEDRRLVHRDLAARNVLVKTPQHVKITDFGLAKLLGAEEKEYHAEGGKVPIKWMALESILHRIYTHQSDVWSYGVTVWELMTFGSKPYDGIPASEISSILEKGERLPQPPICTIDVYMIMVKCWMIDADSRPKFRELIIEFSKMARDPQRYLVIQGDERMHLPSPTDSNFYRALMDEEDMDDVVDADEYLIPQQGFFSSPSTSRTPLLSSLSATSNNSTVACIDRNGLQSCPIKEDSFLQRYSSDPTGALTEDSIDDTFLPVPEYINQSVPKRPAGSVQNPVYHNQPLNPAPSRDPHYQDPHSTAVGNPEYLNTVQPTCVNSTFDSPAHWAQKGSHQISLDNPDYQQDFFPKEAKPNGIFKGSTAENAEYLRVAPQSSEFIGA
Chain of EGFR (A767_dupASV) expressing Ba/F3 stable cell line (P00533 with tags, fused parts or gaps DUP767-769): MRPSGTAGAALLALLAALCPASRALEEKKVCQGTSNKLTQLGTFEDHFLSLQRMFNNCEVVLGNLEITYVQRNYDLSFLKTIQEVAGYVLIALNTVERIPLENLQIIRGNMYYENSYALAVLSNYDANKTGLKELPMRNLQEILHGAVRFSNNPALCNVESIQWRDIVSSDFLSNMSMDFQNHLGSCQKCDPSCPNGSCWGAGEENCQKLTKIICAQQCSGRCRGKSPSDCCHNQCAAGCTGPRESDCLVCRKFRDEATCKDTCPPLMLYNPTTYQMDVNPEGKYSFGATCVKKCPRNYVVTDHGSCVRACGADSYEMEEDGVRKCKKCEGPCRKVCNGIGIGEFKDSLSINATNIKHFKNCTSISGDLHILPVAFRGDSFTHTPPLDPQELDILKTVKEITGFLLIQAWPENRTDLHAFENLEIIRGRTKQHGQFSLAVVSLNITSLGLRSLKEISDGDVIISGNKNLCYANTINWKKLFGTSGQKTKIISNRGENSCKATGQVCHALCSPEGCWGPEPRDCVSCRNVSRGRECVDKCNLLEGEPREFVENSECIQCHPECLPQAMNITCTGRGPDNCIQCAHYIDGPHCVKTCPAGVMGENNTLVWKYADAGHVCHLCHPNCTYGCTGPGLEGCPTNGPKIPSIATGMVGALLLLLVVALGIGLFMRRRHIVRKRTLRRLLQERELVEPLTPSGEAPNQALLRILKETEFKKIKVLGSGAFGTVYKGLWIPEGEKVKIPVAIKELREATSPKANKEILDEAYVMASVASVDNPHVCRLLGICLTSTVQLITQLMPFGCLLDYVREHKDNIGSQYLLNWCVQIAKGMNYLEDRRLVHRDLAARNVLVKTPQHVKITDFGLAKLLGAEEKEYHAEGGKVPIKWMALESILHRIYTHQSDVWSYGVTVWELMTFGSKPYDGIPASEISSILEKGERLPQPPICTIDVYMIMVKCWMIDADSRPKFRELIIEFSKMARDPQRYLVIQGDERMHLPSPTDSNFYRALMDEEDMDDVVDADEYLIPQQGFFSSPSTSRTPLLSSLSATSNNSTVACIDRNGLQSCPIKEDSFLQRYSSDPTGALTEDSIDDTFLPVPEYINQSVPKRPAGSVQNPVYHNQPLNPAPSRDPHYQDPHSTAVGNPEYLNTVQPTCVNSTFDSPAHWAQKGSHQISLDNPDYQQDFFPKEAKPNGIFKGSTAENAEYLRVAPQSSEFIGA
Chain of HER2 (A775_G775insYVMA) expressing Ba/F3 stable cell line (P04626 with tags, fused parts or gaps DUP772-775): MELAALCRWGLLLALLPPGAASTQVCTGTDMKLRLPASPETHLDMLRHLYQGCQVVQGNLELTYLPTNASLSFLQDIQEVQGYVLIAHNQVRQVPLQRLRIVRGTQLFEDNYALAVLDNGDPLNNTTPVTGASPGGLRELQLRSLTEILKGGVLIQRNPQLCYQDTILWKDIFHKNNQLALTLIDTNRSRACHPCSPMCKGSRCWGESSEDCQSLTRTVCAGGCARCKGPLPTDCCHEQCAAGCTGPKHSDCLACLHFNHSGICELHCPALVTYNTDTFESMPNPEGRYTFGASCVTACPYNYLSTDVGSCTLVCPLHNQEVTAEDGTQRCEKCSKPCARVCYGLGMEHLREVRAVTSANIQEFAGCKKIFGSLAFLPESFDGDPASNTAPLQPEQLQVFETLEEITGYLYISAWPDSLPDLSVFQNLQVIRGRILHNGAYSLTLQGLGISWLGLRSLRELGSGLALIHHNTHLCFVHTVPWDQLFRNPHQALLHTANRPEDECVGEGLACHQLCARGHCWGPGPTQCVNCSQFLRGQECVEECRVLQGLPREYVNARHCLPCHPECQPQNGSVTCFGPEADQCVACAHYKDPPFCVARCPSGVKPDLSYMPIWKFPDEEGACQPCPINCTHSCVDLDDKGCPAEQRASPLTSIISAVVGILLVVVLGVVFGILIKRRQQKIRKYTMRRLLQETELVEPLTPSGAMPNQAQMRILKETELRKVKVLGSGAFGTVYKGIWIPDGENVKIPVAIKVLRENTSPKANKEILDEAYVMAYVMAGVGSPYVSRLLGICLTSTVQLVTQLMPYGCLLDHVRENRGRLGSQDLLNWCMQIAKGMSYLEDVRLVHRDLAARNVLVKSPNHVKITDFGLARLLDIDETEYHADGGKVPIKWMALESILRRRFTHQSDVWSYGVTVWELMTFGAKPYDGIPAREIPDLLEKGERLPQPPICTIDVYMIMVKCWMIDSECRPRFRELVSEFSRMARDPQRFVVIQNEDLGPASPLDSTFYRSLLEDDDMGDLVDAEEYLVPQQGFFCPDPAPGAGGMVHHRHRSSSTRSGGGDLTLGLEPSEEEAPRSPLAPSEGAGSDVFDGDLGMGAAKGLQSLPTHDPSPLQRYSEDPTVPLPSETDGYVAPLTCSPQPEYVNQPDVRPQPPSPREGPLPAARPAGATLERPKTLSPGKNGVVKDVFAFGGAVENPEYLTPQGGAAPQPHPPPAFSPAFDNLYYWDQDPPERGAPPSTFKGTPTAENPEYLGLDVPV

Structure (SMILES)	IC50 [1]	GI50 [2]	GI50 [3]	GI50 [4]
Cn1cc(Nc2ncc3c(n2)N(c2cccc(NC(=O)/C=C/CN4CCCCC4)c2)C(=O)N(c2ccccc2)CC3)c(Cl)n1 [Compound 40, (E)-N-(3-(2-((3-chloro-1-methyl-1H-pyrazol-4-yl)amino)-8-oxo-7-phenyl-5,6,7,8-tetrahydro-9H-pyrimido[4,5-d][1,3]diazepin-9-yl)phenyl)-4-(piperidin-1-yl)but-2-enamide]	> 10000 nM	325 nM	406 nM	536 nM
COC/C=C/C(=O)Nc1cccc(N2C(=O)N(c3ccccc3)CCc3cnc(Nc4cn(C)nc4Cl)nc32)c1 [Compound 46, (E)-N-(3-(2-((3-chloro-1-methyl-1H-pyrazol-4-yl)amino)-8-oxo-7-phenyl-5,6,7,8-tetrahydro-9H-pyrimido[4,5-d][1,3]diazepin-9-yl)phenyl)-4-methoxybut-2-enamide]	> 10000 nM	1130 nM	2770 nM	5950 nM
Cn1cc(Nc2ncc3c(n2)N(c2cccc(NC(=O)C(F)Cl)c2)C(=O)N(Cc2ccccc2)CC3)c(Cl)n1 (stereo not shown) [Compound 24, N-(3-(7-benzyl-2-((3-chloro-1-methyl-1H-pyrazol-4-yl)amino)-8-oxo-5,6,7,8-tetrahydro-9H-pyrimido[4,5-d][1,3]diazepin-9-yl)phenyl)-2-chloro-2-fluoroacetamide]	> 10000 nM	1150 nM	1090 nM	2000 nM
CN(C)C/C=C/C(=O)Nc1cccc(N2C(=O)N(c3ccccc3)CCc3cnc(Nc4cccnc4F)nc32)c1 [Compound 44, (E)-4-(dimethylamino)-N-(3-(2-((2-fluoropyridin-3-yl)amino)-8-oxo-7-phenyl-5,6,7,8-tetrahydro-9H-pyrimido[4,5-d][1,3]diazepin-9-yl)phenyl)but-2-enamide]	> 10000 nM	936 nM	1140 nM	1230 nM
C/C=C/C(=O)Nc1cccc(N2C(=O)N(Cc3ccccc3)CCc3cnc(Nc4cn(C)nc4Cl)nc32)c1 [Compound 2, (E)-N-(3-(7-benzyl-2-((3-chloro-1-methyl-1H-pyrazol-4-yl)amino)-8-oxo-5,6,7,8-tetrahydro-9H-pyrimido[4,5-d][1,3]diazepin-9-yl)phenyl)but-2-enamide]	> 10000 nM	261 nM	249 nM	243 nM
CN(C)C/C=C/C(=O)Nc1cccc(N2C(=O)N(c3ccccc3)CCc3cnc(Nc4cn(C)nc4Cl)nc32)c1 [Compound 31, (E)-N-(3-(2-((3-chloro-1-methyl-1H-pyrazol-4-yl)amino)-8-oxo-7-phenyl-5,6,7,8-tetrahydro-9H-pyrimido[4,5-d][1,3]diazepin-9-yl)phenyl)-4-(dimethylamino)but-2-enamide]	> 10000 nM	2040 nM	3950 nM	2420 nM
C=CC(=O)Nc1cccc(N2C(=O)N(Cc3ccccc3)CCc3cnc(Nc4cccnc4)nc32)c1 [Compound 12, N-(3-(7-benzyl-8-oxo-2-(pyridin-3-ylamino)-5,6,7,8-tetrahydro-9H-pyrimido[4,5-d][1,3]diazepin-9-yl)phenyl)acrylamide]	> 10000 nM	> 10000 nM	> 10000 nM	–
C=CC(=O)Nc1cccc(N2C(=O)N(Cc3ccccc3)CCc3cnc(NC4COC4)nc32)c1 [Compound 27, N-(3-(7-benzyl-2-(oxetan-3-ylamino)-8-oxo-5,6,7,8-tetrahydro-9H-pyrimido[4,5-d][1,3]diazepin-9-yl)phenyl)acrylamide]	> 10000 nM	606 nM	611 nM	–
C=CC(=O)Nc1cccc(N2C(=O)N(Cc3ccccc3)CCc3cnc(NC4CCOCC4)nc32)c1 [Compound 25, N-(3-(7-benzyl-8-oxo-2-((tetrahydro-2H-pyran-4-yl)amino)-5,6,7,8-tetrahydro-9H-pyrimido[4,5-d][1,3]diazepin-9-yl)phenyl)acrylamide]	> 10000 nM	388 nM	492 nM	–

These reach a lower IC50 [1]. Values come first.

IC50 [1]	GI50 [2]	GI50 [3]	GI50 [4]	Structure (SMILES)
179 nM	911 nM	933 nM	–	Cc1cc(Nc2ncc3c(n2)N(c2cccc(NC(=O)/C=C/CN(C)C)c2)C(=O)N(Cc2ccccc2)CC3)ccc1N1CCN(C)CC1 [Compound 23, (E)-N-(3-(7-benzyl-2-((3-methyl-4-(4-methylpiperazin-1-yl)phenyl)amino)-8-oxo-5,6,7,8-tetrahydro-9H-pyrimido[4,5-d][1,3]diazepin-9-yl)phenyl)-4-(dimethylamino)but-2-enamide]
225 nM	2790 nM	3480 nM	–	Cc1cc(Nc2ncc3c(n2)N(c2cccc(NC(=O)/C=C/CN(C)C)c2)C(=O)N(c2ccccc2)CC3)ccc1N1CCN(C)CC1 [Compound 34, (E)-4-(dimethylamino)-N-(3-(2-((3-methyl-4-(4-methylpiperazin-1-yl)phenyl)amino)-8-oxo-7-phenyl-5,6,7,8-tetrahydro-9H-pyrimido[4,5-d][1,3]diazepin-9-yl)phenyl)but-2-enamide]
20 nM	318 nM	325 nM	–	C=CC(=O)Nc1cccc(N2C(=O)N(c3ccccc3)CCc3cnc(Nc4ccc(C5CCN(C)CC5)cc4)nc32)c1 [Compound 36, N-(3-(2-((4-(1-methylpiperidin-4-yl)phenyl)amino)-8-oxo-7-phenyl-5,6,7,8-tetrahydro-9H-pyrimido[4,5-d][1,3]diazepin-9-yl)phenyl)acrylamide]
114 nM	329 nM	940 nM	–	CN(C)C/C=C/C(=O)Nc1cccc(N2C(=O)N(Cc3ccccc3)CCc3cnc(Nc4cn(C5CCN(C)CC5)nc4Cl)nc32)c1 [Compound 8, (E)-N-(3-(7-benzyl-2-((3-chloro-1-(1-methylpiperidin-4-yl)-1H-pyrazol-4-yl)amino)-8-oxo-5,6,7,8-tetrahydro-9H-pyrimido[4,5-d][1,3]diazepin-9-yl)phenyl)-4-(dimethylamino)but-2-enamide]
1220 nM	> 10000 nM	> 10000 nM	–	C=CC(=O)Nc1cccc(Nc2ncc3c(n2)N(C)C(=O)N(c2ccccc2)CC3)c1 [Compound 45, N-(3-((9-methyl-8-oxo-7-phenyl-6,7,8,9-tetrahydro-5H-pyrimido[4,5-d][1,3]diazepin-2-yl)amino)phenyl)acrylamide]
6020 nM	348 nM	959 nM	174 nM	COc1cc(N2CCN(C)CC2)ccc1Nc1ncc2c(n1)N(c1cccc(NC(=O)/C=C/CN(C)C)c1)C(=O)N(Cc1ccccc1)CC2 [Compound 15, (E)-N-(3-(7-benzyl-2-((2-methoxy-4-(4-methylpiperazin-1-yl)phenyl)amino)-8-oxo-5,6,7,8-tetrahydro-9H-pyrimido[4,5-d][1,3]diazepin-9-yl)phenyl)-4-(dimethylamino)but-2-enamide]
370 nM	9010 nM	989 nM	–	CN(C)C/C=C/C(=O)Nc1cccc(N2C(=O)N(c3ccccc3)CCc3cnc(Nc4ccc(C5CCN(C)CC5)cc4)nc32)c1 [Compound 38, (E)-4-(dimethylamino)-N-(3-(2-((4-(1-methylpiperidin-4-yl)phenyl)amino)-8-oxo-7-phenyl-5,6,7,8-tetrahydro-9H-pyrimido[4,5-d][1,3]diazepin-9-yl)phenyl)but-2-enamide]

Source: patent publication US20240217977A1, “DIAZEPANONE-FUSED PYRIMIDINE COMPOUNDS, COMPOSITIONS AND MEDICINAL APPLICATIONS THEREOF” (Blueprint Medicines Corporation, priority 2021, published 2024)
